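Five compound concentrations were applied to cells in 96-well plates for 48 hours; endpoints were derived by simple linear interpolation of the resulting dose-response curve. GI50 is the concentration that inhibits growth by half. The concentration for full growth arrest is given as TGI.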

Among the data in PubChem BioAssay (NCI) are TGI and GI50 values, retold here.

Some test systems named below: 786-0 renal; DU-145 prostate; HL-60(TB) leukemia; MALME-3M melanoma; NCI-H522 lung; OVCAR-3 ovarian; OVCAR-5 ovarian; RXF 393 renal; T-47D breast; UACC-62 melanoma.
Experiment in all cases: growth of human tumour cells (NCI), 48 h

Regarding `Cc1ccc2ccc3ccc(C)nc3c2n1`, the TGI in the assay on 786-0 renal, in the assay on DU-145 prostate, with HL-60(TB) leukemia, in the assay with MALME-3M melanoma, with NCI-H522 lung and with OVCAR-3 ovarian was above 100 µM each time. For the same compound, the TGI in the assay on OVCAR-5 ovarian, with RXF 393 renal, in the assay on T-47D breast and in the assay with UACC-62 melanoma was above 100 µM each time.

For `C=Cc1cc(OC)c2c(c1)c(=O)oc1c2cc(OC)c2c(O)ccc(C3OC(C)C(O)C(C)(O)C3O)c21` (centres undefined), the TGI is 0.00897 µM in the assay on DU-145 prostate, 0.0256 µM in the assay with HL-60(TB) leukemia and 0.00439 µM in the assay on T-47D breast. Besides, the GI50 was 0.00153 µM in the assay with MALME-3M melanoma; 0.00181 µM with OVCAR-3 ovarian; 0.000251 µM in the assay on OVCAR-5 ovarian; 0.000174 µM in the assay on RXF 393 renal; 0.0012 µM in the assay with UACC-62 melanoma.

Turning to `O=C1C(=c2cc3c(c4ccccc24)=NC24CCCCC2C(c2ccccc2)C=C(c2ccccc2)N34)C(=O)c2ccccc21` (centres undefined), the TGI is above 100 µM in the assay on 786-0 renal; above 100 µM with DU-145 prostate; above 100 µM with HL-60(TB) leukemia; above 100 µM in the assay on MALME-3M melanoma; 47.5 µM in the assay on NCI-H522 lung; above 100 µM in the assay with OVCAR-3 ovarian. The TGI in the assay with OVCAR-5 ovarian was above 100 µM; in the assay with RXF 393 renal it was 49 µM; with T-47D breast it was above 100 µM.

In the case of `CN=C(N)/N=C(\N)Nc1cc2ccccc2c2ccccc12`, the TGI in the assay with 786-0 renal turned out to be 25.5 µM; in the assay on DU-145 prostate, 32.3 µM; with HL-60(TB) leukemia, 19.8 µM; with MALME-3M melanoma it was 29.3 µM; in the assay with NCI-H522 lung it was 26.2 µM; with OVCAR-3 ovarian, 35.8 µM. The TGI was found to be 33 µM in the assay on OVCAR-5 ovarian, 31.9 µM with RXF 393 renal, 40.5 µM with T-47D breast and 28.2 µM with UACC-62 melanoma.

With `CSc1ccc(-c2cc(-c3nc4ccccc4[nH]3)nc(N)c2C#N)cc1`, the TGI with 786-0 renal is above 100 µM; in the assay with DU-145 prostate, 66.9 µM; in the assay with HL-60(TB) leukemia it was 48.9 µM; in the assay with MALME-3M melanoma, 44.5 µM; in the assay with NCI-H522 lung, 46.8 µM; in the assay on OVCAR-3 ovarian it was 43.1 µM. Besides, the TGI came out at 75.2 µM in the assay with OVCAR-5 ovarian, 24.7 µM in the assay with RXF 393 renal, 54.7 µM in the assay on T-47D breast and 26 µM in the assay on UACC-62 melanoma.

As to `C[C@H](N[C@H]1CCC[C@]1(O)C#Cc1ccc2c(c1)OCO2)c1ccccc1`, the TGI in the assay with DU-145 prostate, in the assay on HL-60(TB) leukemia, in the assay with OVCAR-5 ovarian, in the assay on RXF 393 renal, in the assay on T-47D breast and in the assay on UACC-62 melanoma was above 25 µM in each case.

On to `CCCC1=C(C(=O)OCC)C(c2ccccc2OC)C(C#N)=C(N)O1` (centres undefined), for which the GI50 with DU-145 prostate is 29.3 µM; in the assay on HL-60(TB) leukemia it was 33.7 µM; in the assay with MALME-3M melanoma, 27.8 µM; with NCI-H522 lung, 25.5 µM; in the assay with OVCAR-3 ovarian, 67.1 µM; in the assay with OVCAR-5 ovarian, above 100 µM. The GI50 in the assay on RXF 393 renal was 46.5 µM; in the assay on T-47D breast, 43.4 µM. Besides, the TGI is above 100 µM in the assay on DU-145 prostate; above 100 µM with HL-60(TB) leukemia; above 100 µM in the assay with MALME-3M melanoma; 60.5 µM with NCI-H522 lung; above 100 µM with OVCAR-3 ovarian; above 100 µM in the assay on OVCAR-5 ovarian. Besides, the TGI with RXF 393 renal and in the assay on T-47D breast was above 100 µM each time.

For `C[C@@H](CO)C1=CC(C#C[Si](C)(C)C)N(C(=O)Oc2ccccc2)c2ccccc21` (some centres undefined), the TGI with 786-0 renal is 31.8 µM; in the assay with DU-145 prostate, 48.1 µM; in the assay on HL-60(TB) leukemia it was 57.2 µM; with NCI-H522 lung, 33.9 µM; with OVCAR-3 ovarian, 26.9 µM; with OVCAR-5 ovarian, 57.1 µM. The TGI with RXF 393 renal is 20 µM; with T-47D breast it was 51.1 µM; in the assay on UACC-62 melanoma, 21.9 µM.

As for `O=C1/C(=C/c2ccc(Cl)cc2)N=C(c2ccccc2)N1c1nc2c(Cl)cc(Cl)cc2s1`, the TGI was above 100 µM in the assay on 786-0 renal; above 100 µM in the assay with DU-145 prostate; 43.1 µM in the assay with HL-60(TB) leukemia; 50.9 µM in the assay on OVCAR-3 ovarian; above 100 µM in the assay on OVCAR-5 ovarian; 62 µM in the assay on RXF 393 renal. In addition, the TGI with T-47D breast was 70.2 µM; in the assay with UACC-62 melanoma it was above 100 µM.

For `O=C(NCCNc1nccc(-c2c(-c3cccc(O)c3)nc3sccn23)n1)Nc1cccc(C(F)(F)F)c1`, the GI50 in the assay on DU-145 prostate is 5.37 µM; in the assay on HL-60(TB) leukemia it was 2.85 µM; in the assay on MALME-3M melanoma it was 2.09 µM; in the assay with NCI-H522 lung, 2.11 µM; with OVCAR-3 ovarian, 5.52 µM; with OVCAR-5 ovarian, 16.3 µM. Moreover, the GI50 was 2.41 µM in the assay with RXF 393 renal, 6.52 µM in the assay on T-47D breast and 1.94 µM in the assay on UACC-62 melanoma. Further, the TGI stood at 30 µM with DU-145 prostate; 6.03 µM with HL-60(TB) leukemia; 7.3 µM with MALME-3M melanoma; 5 µM in the assay with NCI-H522 lung; 22.7 µM in the assay with OVCAR-3 ovarian; 65.3 µM in the assay on OVCAR-5 ovarian. The TGI was found to be 5.1 µM with RXF 393 renal, 25.6 µM in the assay with T-47D breast and 6.51 µM with UACC-62 melanoma.

Take `COc1cc2c(cc1OC)C1Cc3cc(OC)c(OC)cc3C(C2)O1`: the TGI in the assay with DU-145 prostate, in the assay on OVCAR-3 ovarian, with OVCAR-5 ovarian, in the assay with RXF 393 renal, in the assay on T-47D breast and with UACC-62 melanoma was above 100 µM throughout.

As to `CNS(=O)(=O)c1ccc2[nH]c(O)c(C3=Nc4ccccc4C3=O)c2c1`, the TGI with DU-145 prostate, with HL-60(TB) leukemia, in the assay with MALME-3M melanoma, in the assay on NCI-H522 lung, in the assay with OVCAR-3 ovarian and in the assay with OVCAR-5 ovarian was above 100 µM in each case. Further, the TGI in the assay on RXF 393 renal, in the assay with T-47D breast and in the assay on UACC-62 melanoma was above 100 µM in each case.
